From US9457033B2, “Steroid alkaloids and uses thereof as antimicrobial agents against electron transport-deficient microbes and as potentiators for antimicrobial agents against pathogenic bacteria” (priority 2011, dated 2016)
Values after ≈ are worked out from the molar mass of the structure shown. Where a name gives a salt, the structure may show the parent alone.

Legend:
Assay type in all cases: cell-based, Staphylococcus aureus
S. aureus ATCC 29213 [1] = assay: MIC, microdilution in CAMHB 24 h, with or without tomatidine/compound; settings: for MIC: Staphylococcus aureus; for Fold (−TO/+TO): tomatidine at 8 μg/ml
[2] = tested on: S. aureus SCV strain NewbouldΔhemB; assay: MIC of compounds against SCV; settings: for MIC: Staphylococcus aureus, read-out: MIC of Cpd against SCV hemB; for MIC of Cpd against SCV hemB: provided in categories (strong ≦ 0.5; moderate 4-8; low > 8)
S. aureus ATCC 29213 [3] = assay: Checkerboard assay, aminoglycoside and tomatidine; settings: for FIC index: aminoglycoside with tomatidine, tomatidine MIC considered 32 μg/ml, values overestimated; for Aminoglycoside MIC: checkerboard; for MIC: Staphylococcus aureus, ATCC29213, checkerboard
Procedure: This checkerboard protocol (Eliopoulos and Moellering, 1996) was conducted by a microdilution method similar to that use for standard MICs determination. In 96 wells plates, antibiotics were loaded at a 4× concentration (where X is the maximal tested concentration) in well A1 and at a 2× concentration in the others wells of the column 1. Antibiotics were serially diluted 1:1 from the column 2 to column 10. […] Wells A12, B12, […] are positive untreated controls whereas wells […] are negative non-inoculated controls. […] The FIC index was calculated as follow (Eliopoulos and Moellering, 1996): FIC […]/MICB, where A and B are MICs of compounds A and B in combination and where MICA and MICB are the MICs of compound A alone and of compound B alone, respectively, and FICA and FICB are the FICs of compound A and of compound B, respectively.

[4] = ATCC29213, read-out: MIC of Cpd against ATCC29213
[5] = gentamicin with 8 μg/ml of Cpd, provided in categories of synergy (1-2 no or mild; 4-16 moderate or strong)
[6] = ATCC29213, compound alone, read-out: MIC of Cpd against ATCC29213

Compound	Fold (MIC of GEN alone/MIC of GEN with Cpd) (S. aureus ATCC 29213 [1]; [5])	MIC [2] [µg/mL]	MIC of Cpd against ATCC29213 (S. aureus ATCC 29213 [1]; compound alone) [µg/mL]	MIC of Cpd against SCV hemB [2]	other results
C[C@H](CN)CCC[C@@H](C)C1[C@@H](O)C[C@H]2[C@@H]3CC[C@H]4C[C@@H](O)CC[C@]4(C)[C@H]3CC[C@]12C (some centres unmarked) [Compound 26]	4-16 fold	≤ 0.5			MIC (S. aureus ATCC 29213 [1]; [4]): > 16 µg/mL
CC(O)[C@H]1CC[C@H]2[C@@H]3CC[C@H]4C[C@@H](O)CC[C@]4(C)[C@H]3CC[C@]12C (stereo in doubt) [Compound 54, pregnane-3,20-diol]	1-2 fold	> 8			MIC (S. aureus ATCC 29213 [1]; [6]): > 16 µg/mL
C[C@H]1CC[C@]2(NC1)O[C@H]1C[C@H]3[C@@H]4CC[C@H]5C[C@@H](O)CC[C@]5(C)[C@H]4CC[C@]3(C)[C@H]1[C@@H]2C [Tomatidine hydrochloride salt]	4-16 fold	≤ 0.5			MIC (S. aureus ATCC 29213 [1]; [4]): > 16 µg/mL
Solasodan	1-2 fold		>16	>8 µg/mL	
pregnan-3β-ol-20-(aminobutyl)amine hydrochloride Salt [Compound 44]	1-2 fold		>16	>8 µg/mL	
CNCC(=O)[C@H]1CC[C@H]2[C@@H]3CCC4CC(O)CC[C@]4(C)[C@H]3CC[C@]12C.Cl (some centres unmarked) [Compound 49, N-methyl-21-aminopregnanolone hydrochloride salt]	1-2 fold		>16	>8 µg/mL	
NCC[C@H](O)C(=O)N[C@@H]1C[C@H](N)[C@@H](O[C@H]2O[C@H](CN)[C@@H](O)[C@H](O)[C@H]2O)[C@H](O)[C@H]1O[C@H]1O[C@H](CO)[C@@H](O)[C@H](N)[C@H]1O [Amikacin, amikacin]					MIC −TO (S. aureus ATCC 29213 [1]; ATCC 29213, absence of tomatidine): 2 µg/mL (≈ 3.42 µM); MIC +TO (S. aureus ATCC 29213 [1]; ATCC 29213, presence of tomatidine at 8 μg/ml): 0.5 µg/mL; Fold (−TO/+TO) (S. aureus ATCC 29213 [1]; ATCC 29213): 4 fold; FIC index (S. aureus ATCC 29213 [3]): ≦0.133; Aminoglycoside MIC (S. aureus ATCC 29213 [3]; tomatidine 0 μg/ml): 2 µg/mL; Aminoglycoside MIC (S. aureus ATCC 29213 [3]; tomatidine 0.06 μg/ml): 2 µg/mL; Aminoglycoside MIC (S. aureus ATCC 29213 [3]; tomatidine 0.12 μg/ml): 0.5 µg/mL; Aminoglycoside MIC (S. aureus ATCC 29213 [3]; tomatidine 0.25 μg/ml): 0.25 µg/mL; Aminoglycoside MIC (S. aureus ATCC 29213 [3]; tomatidine 0.5 μg/ml): 0.25 to 0.5 µg/mL; Aminoglycoside MIC (S. aureus ATCC 29213 [3]; tomatidine 1 μg/ml): 0.25 to 1 µg/mL; Aminoglycoside MIC (S. aureus ATCC 29213 [3]; tomatidine 2 μg/ml): 0.25 to 1 µg/mL; Aminoglycoside MIC (S. aureus ATCC 29213 [3]; tomatidine 4 μg/ml): 0.25 µg/mL; Aminoglycoside MIC (S. aureus ATCC 29213 [3]; tomatidine 8 μg/ml): 0.5 µg/mL
CS(=O)(=O)O.C[C@H]1CC[C@]2(NC1)O[C@H]1C[C@H]3[C@@H]4CC[C@H]5C[C@@H](O)CC[C@]5(C)[C@H]4CC[C@]3(C)[C@H]1[C@@H]2C [Compound 57, tomatidine methanesulfonate]	4-16 fold		>16	≦0.5 μg/ml	
CN(C)CC(=O)[C@H]1CC[C@H]2[C@@H]3CC[C@H]4C[C@@H](O)CC[C@]4(C)[C@H]3CC[C@]12C [Compound 47, N,N-dimethyl-21-aminopregnanolone]	1-2 fold	> 8			MIC (S. aureus ATCC 29213 [1]; [4]): > 16 µg/mL
C=CCOC1CCC2(C)C(CCC3C2CCC2(C)C3CC3OC4(CCC(C)CN4)C(C)C32)C1.Cl (centres unmarked) [Compound 56, O-allyltomatidine hydrochloride Salt]			8 to 16	≦0.5 μg/ml	Fold (MIC of GEN alone/MIC of GEN with Cpd) (S. aureus ATCC 29213 [1]; gentamicin with Compound 56 used at 4 μg/ml, categories of synergy): 4-16 fold
C[C@H]1CC[C@@]2(O[C@H]3C[C@H]4[C@@H]5CC[C@H]6C[C@@H](O)CC[C@]6(C)[C@H]5CC[C@]4(C)[C@H]3[C@@H]2C)N(C=O)C1 [Compound 21, N-formyl tomatidine]	1-2 fold		>16	>8 µg/mL	
CC(NCCCN(C)C)[C@H]1CC[C@H]2[C@@H]3CC[C@H]4C[C@@H](O)CC[C@]4(C)[C@H]3CC[C@]12C (stereo partly drawn) [Compound 32, pregnan-3β-ol-20-((N,N-dimethylamino)propyl)amine]	4-16 fold	> 8			MIC (S. aureus ATCC 29213 [1]; [6]): > 16 µg/mL
CC(N)[C@H]1CC[C@H]2[C@@H]3CC[C@H]4C[C@@H](O)CC[C@]4(C)[C@H]3CC[C@]12C (stereo partly drawn) [Compound 30a, pregnan-3β-ol-20-amine]	1-2 fold	> 8			MIC (S. aureus ATCC 29213 [1]; [6]): > 16 µg/mL
C[C@]12CC[C@H]3[C@@H](CCC4CC(O)CC[C@@]43C)[C@@H]1CC[C@@H]2C(=O)CN1CCNCC1.Cl (some centres unmarked) [Compound 50, 21-piperazinopregnanolone hydrochloride Salt]	1-2 fold		>16	>8 µg/mL	
C[C@H]1CC[C@@]2(NC1)O[C@H]1C[C@H]3[C@@H]4CC[C@H]5C[C@H](O)CC[C@]5(C)[C@H]4CC[C@]3(C)[C@H]1[C@@H]2C.Cl [Compound 23, 3α-hydroxytomatidine hydrochloride Salt]	4-16 fold		>16	4 to 8 µg/mL	
[H]/N=C(/N)N[C@H]1[C@H](O)[C@@H](O)[C@H](O[C@@H]2O[C@@H](C)[C@](O)(C=O)[C@H]2O[C@@H]2O[C@@H](CO)[C@H](O)[C@@H](O)[C@@H]2NC)[C@@H](N/C(N)=N\[H])[C@@H]1O [Streptomycin, streptomycin]					Fold (−TO/+TO) (S. aureus ATCC 29213 [1]; ATCC 29213): 4-8 fold; MIC (S. aureus ATCC 29213 [1]; ATCC29213, ATCC 29213, absence of tomatidine, read-out: MIC −TO): 4 to 8 µg/mL (≈ 6.88 to 13.8 µM); MIC (S. aureus ATCC 29213 [1]; ATCC29213, ATCC 29213, presence of tomatidine at 8 μg/ml, read-out: MIC +TO): 1 µg/mL; MIC (S. aureus ATCC 29213 [3]; tomatidine 0 μg/ml): 4 to 8 µg/mL; MIC (S. aureus ATCC 29213 [3]; tomatidine 0.06 μg/ml): 4 µg/mL; MIC (S. aureus ATCC 29213 [3]; tomatidine 0.12 μg/ml): 2 µg/mL; MIC (S. aureus ATCC 29213 [3]; tomatidine 0.25 μg/ml): 1 to 2 µg/mL; MIC (S. aureus ATCC 29213 [3]; tomatidine 0.5 μg/ml): 1 µg/mL; MIC (S. aureus ATCC 29213 [3]; tomatidine 1 μg/ml): 1 µg/mL; MIC (S. aureus ATCC 29213 [3]; tomatidine 2 μg/ml): 1 µg/mL; MIC (S. aureus ATCC 29213 [3]; tomatidine 4 μg/ml): 1 µg/mL; MIC (S. aureus ATCC 29213 [3]; tomatidine 8 μg/ml): 1 µg/mL; FIC index (S. aureus ATCC 29213 [3]): ≦0.199
pregnan-3β-ol-20-(aminopropyl)amine hydrochloride Salt [Compound 43]	1-2 fold		>16	4 to 8 µg/mL	
pregnan-3β-ol-20-(aminoethyl)amine hydrochloride Salt [Compound 42]	1-2 fold		>16	4 to 8 µg/mL	
C[C@]12CC[C@H](O)C[C@@H]1CC[C@@H]1[C@@H]2CC[C@]2(C)[C@@H](C(=O)CN3CCCCC3)CC[C@@H]12 [Compound 48, 21-piperidinopregnanolone]	1-2 fold	> 8			MIC (S. aureus ATCC 29213 [1]; [4]): > 16 µg/mL
CC(=O)[C@H]1CC[C@H]2[C@@H]3CC[C@H]4C[C@@H](O)CC[C@]4(C)[C@H]3CC[C@]12C [Compound 28, Pregnanolone]	1-2 fold	> 8			MIC (S. aureus ATCC 29213 [1]; [4]): > 16 µg/mL
C[C@H]1CC[C@]2(NC1)O[C@H]1C[C@H]3[C@@H]4CC[C@H]5CC(=O)CC[C@]5(C)[C@H]4CC[C@]3(C)[C@H]1[C@@H]2C.Cl [Compound 25, 3-oxotomatidine hydrochloride Salt]	4-16 fold		>16	≦0.5 μg/ml	
